Laboratory results: patent US20120196899A1, “METHODS AND PRODUCTS FOR TREATING INFLAMMATION” (Rock Creek Pharmaceuticals, Inc., priority 2010, published 2012)
Several values for one entry are separate records, joined by “and”; a condition that tells them apart may be missing. Equal entries are not always repeated. Where two headings read alike, the source gives them in different places.

Assays:
autoimmune thyroiditis = experiment: Autoimmune thyroiditis in thyroglobulin-immunized mice (Example 16B); assay type: in vivo, CBA/J female mice; conditions: 0.05 mg/ml in drinking water
Description: In another experiment, eighteen CBA/J female mice were immunized with mouse thyroglobulin, emulsified in complete Freund's adjuvant, on day 0 and day 7. One group of mice (n=10) drank regular water. […] Mice were sacrificed 21 days after the first immunization to collect the thyroid gland and the blood. The thyroid was analyzed for the presence of infiltrating mononuclear cells. The blood was analyzed for the levels of antibodies against thyroglobulin.

[1] = test system: Experimental Autoimmune Thyroiditis; experiment: Experimental Autoimmune Thyroiditis (Example 16A): thyroid histopathology; assay type: in vivo, mice; conditions: 0.05 mg/ml in drinking water, day 21, p=0.05
Description: (§1) Thyroiditis was induced by injection of thyroglobulin emulsified in complete Freund's adjuvant (CFA). On days 0 and 7, female mice received subcutaneous injection of 100 μg thyroglobulin (2 injections of 50 μg each). Control mice drank water. […] Mice were sacrificed on day 21.
Thyroid histopathology. Thyroid glands were removed. One lobe was fixed in formalin for histopathology. One lobe was frozen for immunohistochemistry. The extent of lymphocytic infiltration and destruction of the thyroid gland was assessed digitally. Initially, the entire thyroid lobe was examined. […] The final score was expressed as the percent of the thyroid area infiltrated by lymphocytes and damaged. The results are shown graphically in FIG. 42. […] Photomicrographs of hematoxylin- and eosin-stained thyroids from control and anatabine-treated mice are shown in FIG. 43A (control) and FIG. 43B (anatabine-treated).

[2] = test system: Experimental Autoimmune Thyroiditis; experiment: Experimental Autoimmune Thyroiditis (Example 16A): lymphoid typing by flow cytometry; assay type: in vivo, mice; conditions: p=0.0143
Description: as §1
Lymphoid typing. Cervical lymph nodes were removed for lymphoid typing by flow cytometry. Spleen and peritoneal macrophages were removed for ex vivo stimulation.

[3] = Concentration in brain extracts after single i.v. bolus; assay type: in vivo, Sprague-Dawley rats; conditions: for concentration at 0.5 h / concentration at 24 h / concentration at 6 h: Sprague-Dawley, rat, brain, intravenous
Description: Six rats (3 males and 3 females) were dosed per dose group. […] Plasma and brain homogenates were stored at −80° C. until analysis.
An additional 48 rats (24 males and 24 females) received a single intravenous dose via the tail vein at the same doses as mentioned above. At 30 and 360 minutes post administration, 6 rats (3 males and 3 females) per dose group, per time point were euthanized, bled via cardiac puncture, and perfused, and brains were collected. The brains were homogenized. Blood was spun, and plasma was collected. Plasma and brain homogenate were stored at −80° C.
The animals were weighed prior to dosing and received a single i.v. dose of either test compound at a volume of 5 mL/kg. Blood was collected via the venus plexus (retro-orbital) into tubes containing (K2) EDTA. No more than 0.5 mL was collected per time point. […] The brain was removed, weighed, homogenized in sterile 0.9% saline at a volume equal to its weight, and stored at −80° C.
Sample preparation. […] The amount of the test agent in the supernatant was determined by liquid chromatography tandem mass spectrometry (LC/MS/MS).
Analysis. Samples were analyzed by LC/MS/MS using an Agilent 6410 mass spectrometer coupled with an Agilent 1200 high pressure liquid chromatography (HPLC) and a CTC PAL chilled autosampler, all controlled by MassHunter software (Agilent). After separation on a hydrophilic interaction liquid chromatography (HILIC) HPLC column (Sepax) using an acetonitrile-ammonium acetate/acetic acid gradient system, peaks were analyzed by mass spectrometry (MS) using ESI ionization in multiple reaction monitoring (MRM) mode. MassHunter software was used to calculate the concentration of the test compounds in samples from the peak area using the appropriate calibration curves.
Calibration samples. Calibration curves were determined for both rat plasma and brain homogenate. Calibration samples were prepared by diluting a 50× stock solution of the test compound in PBS with blank matrix to the appropriate concentration and these samples were prepared as described above in the sample preparation.

C1=CCC(c2cccnc2)NC1 (racemic) [Anatabine, 1,2,3,6-tetrahydro-[2,3′]bipyridinyl]
levels of thyroglobulin antibodies (autoimmune thyroiditis; day 21): had no effect on the levels of thyroglobulin antibodies
thyroiditis frequency and severity (autoimmune thyroiditis; day 21, p=0.023): developed thyroiditis less frequently and of lower severity
thyroid pathology (percent of thyroid area infiltrated and damaged) [1]: developed less severe thyroiditis than control mice
activated T cells ([2]; cervical lymph nodes): fewer activated T cells
regulatory T cells ([2]; cervical lymph nodes): more regulatory T cells
ability to present antigens [2]: a lower ability to present antigens
Concentration of anatabine in rat brain extract ([3]; Anatabine 0.1 mg/kg, Rat Brain, 0.5 hr, individual rats): <LLQ and 21 ng/mL and 34 ng/mL and 25 ng/mL and 30 ng/mL
Concentration of anatabine in rat brain extract ([3]; Anatabine 0.1 mg/kg, Rat Brain, 6 hr, individual rats): 3 ng/mL and <LLQ (2×) and 5 ng/mL and 4 ng/mL and 2 ng/mL
Concentration of anatabine in rat brain extract ([3]; Anatabine 0.1 mg/kg, Rat Brain, 24 hr, individual rats): <LLQ (4×) and 2 ng/mL
Concentration of anatabine in rat brain extract ([3]; Anatabine 0.75 mg/kg, Rat Brain, 0.5 hr, individual rats): 317 ng/mL and 393 ng/mL
Concentration of anatabine in rat brain extract ([3]; Anatabine 0.75 mg/kg, Rat Brain, 6 hr, individual rats): 28 ng/mL and 19 ng/mL and 17 ng/mL and 27 ng/mL and 20 ng/mL
Concentration of anatabine in rat brain extract ([3]; Anatabine 0.75 mg/kg, Rat Brain, 24 hr, individual rats): <LLQ
Avg. Conc. rat brain ([3]; Anatabine 0.75 mg/kg, female, 24 hr): <LLQ
Avg. Conc. rat brain, combined male and female ([3]; Anatabine 0.75 mg/kg, male and female, 24 hr): <LLQ
Avg. Conc. rat brain ([3]; Anatabine 0.75 mg/kg, male, 24 hr): <LLQ
Concentration of anatabine in rat brain extract ([3]; Anatabine 1.0 mg/kg, Rat Brain, 0.5 hr, individual rats): 338 ng/mL and 362 ng/mL and 393 ng/mL
Concentration of anatabine in rat brain extract ([3]; Anatabine 1.0 mg/kg, Rat Brain, 6 hr, individual rats): 3 ng/mL and 4 ng/mL (2×) and 8 ng/mL (2×) and <LLQ
Concentration of anatabine in rat brain extract ([3]; Anatabine 1.0 mg/kg, Rat Brain, 24 hr, individual rats): 2 ng/mL and <LLQ (4×)
Avg. Conc. rat brain ([3]; Anatabine 1.0 mg/kg, female, 24 hr): <LLQ
concentration at 0.5 h ([3]; 0.1 mg/kg, Concentration of anatabine in rat brain extract, Anatabine 0.1 mg/kg, Rat Brain, 0.5 hr, individual rats): 19 ng/mL
concentration at 24 h ([3]; 0.1 mg/kg, Concentration of anatabine in rat brain extract, Anatabine 0.1 mg/kg, Rat Brain, 24 hr, individual rats): 3 ng/mL
concentration at 24 h ([3]; 1 mg/kg, Concentration of anatabine in rat brain extract, Anatabine 1.0 mg/kg, Rat Brain, 24 hr, individual rats): 3 ng/mL
Mean concentration in rat brain extracts ([3]; anatabine 0.75 mg/kg i.v., 24 hr, Female): <LLQ
Mean concentration in rat brain extracts ([3]; anatabine 0.75 mg/kg i.v., 24 hr, Male): <LLQ
Mean concentration in rat brain extracts ([3]; anatabine 1.0 mg/kg i.v., 24 hr, Female): <LLQ
concentration at 0.5 h ([3]; both sexes, 0.1 mg/kg, Anatabine 0.1 mg/kg, male and female, 0.5 hr, read-out: Avg. Conc. rat brain, combined male and female): 25.8 ng/g
concentration at 6 h ([3]; both sexes, 0.1 mg/kg, Anatabine 0.1 mg/kg, male and female, 6 hr, read-out: Avg. Conc. rat brain, combined male and female): 3.5 ng/g
concentration at 24 h ([3]; both sexes, 0.1 mg/kg, Anatabine 0.1 mg/kg, male and female, 24 hr, read-out: Avg. Conc. rat brain, combined male and female): 2.5 ng/g
concentration at 0.5 h ([3]; both sexes, 0.75 mg/kg, Anatabine 0.75 mg/kg, male and female, 0.5 hr, read-out: Avg. Conc. rat brain, combined male and female): 295 ng/g
concentration at 6 h ([3]; both sexes, 0.75 mg/kg, Anatabine 0.75 mg/kg, male and female, 6 hr, read-out: Avg. Conc. rat brain, combined male and female): 21.2 ng/g
concentration at 6 h ([3]; both sexes, 0.75 mg/kg, Concentration of anatabine in rat brain extract, Anatabine 0.75 mg/kg, Rat Brain, 6 hr, individual rats): 16 ng/mL
concentration at 0.5 h ([3]; both sexes, 1 mg/kg, Anatabine 1.0 mg/kg, male and female, 0.5 hr, read-out: Avg. Conc. rat brain, combined male and female): 334 ng/g
concentration at 6 h ([3]; both sexes, 1 mg/kg, Anatabine 1.0 mg/kg, male and female, 6 hr, read-out: Avg. Conc. rat brain, combined male and female): 5.4 ng/g
concentration at 24 h ([3]; both sexes, 1 mg/kg, Anatabine 1.0 mg/kg, male and female, 24 hr, read-out: Avg. Conc. rat brain, combined male and female): 2.5 ng/g
